Values quoted from earlier work in patent US20190209538A1, “Precision Controlled Load and Release Particles for Post-Operative Pain” (LIQUIDIA TECHNOLOGIES, INC., priority 2016, published 2019).

What was measured:
[1] = room temperature, aqueous system between pH 7.0 and pH 9.0
[2] = in vivo

| solubility relative to bupivacaine HCl [1] | clearance rate [2] | Compound |
| --- | --- | --- |
| less soluble than bupivacaine HCl | – | CCCCN1CCCCC1C(=O)Nc1c(C)cccc1C (stereo not shown) [bupivacaine free base, bupivacaine] |
| – | 0.58 L/min | CCCCN1CCCCC1C(=O)Nc1c(C)cccc1C (stereo not shown) [bupivacaine] |
| – | 0.32 L/min | CCCCN1CCCC[C@H]1C(=O)Nc1c(C)cccc1C [levobupivacaine] |
| – | ~0.72 L/min | CCCN1CCCC[C@H]1C(=O)Nc1c(C)cccc1C [ropivacaine] |
